Patent US20250353873A1, “COMPOUNDS AND METHODS FOR MODULATING APOE EXPRESSION” (Ionis Pharmaceuticals, Inc., priority 2024, published 2025)
Strand notation (5' to 3'): a small letter for the sugar, then the base; units joined by * are phosphorothioate-linked, units joined directly phosphodiester-linked; [ ] holds rarer units or linkages, { } end groups; capitals alone tell only the bases. [ms] = mesyl phosphoramidate linkage; e = 2'-O-(2-methoxyethyl) (MOE); k = constrained ethyl (cEt); [5mC] = 5-methylcytosine; d = 2'-deoxy (DNA)

Assays:
[1] = tested on: human APOE RNA; assay: Activity in APOE C57BL/6NTac-Apoeem7250 knock-in mice, single ICV bolus, 16 weeks (Example 12); format: in vivo; details: single ICV bolus 300 μg, 16 weeks post treatment, normalized to mouse Ppia
Experimental: Modified oligonucleotides described above were tested in the APOE C57BL/6NTac-Apoeem7250 knock-in mouse model described above.
APOE C57BL/6NTac-Apoeem7250 knock-in mice were divided into groups of 3-4 mice each. Each mouse received a single intracerebroventricular (ICV) bolus of 300 μg of modified oligonucleotide. A group of 4 mice received a single ICV bolus with PBS as a negative control.
Sixteen weeks post treatment, mice were sacrificed and RNA was extracted from cortical brain tissue and spinal cord for quantitative real-time RT-PCR analysis of RNA expression of APOE using primer probe set RTS3073 (described herein above). APOE RNA levels were normalized to mouse Ppia. Mouse Ppia was amplified using primer probe set m_cyclo24 (described herein above). Results are presented as percent human APOE RNA relative to the amount of human APOE RNA in PBS treated animals, (% control). Each experiment is identified in separate tables below.

[2] = tested on: human APOE RNA; assay: Dose-dependent inhibition of human APOE RNA in HepG2 cells, electroporation, 24 hours (Example 6); format: cell-based
Experimental: Modified oligonucleotides selected from the examples above were tested at various doses in HepG2.
HepG2 cells plated at a density of 50,000 cells per well were treated by electroporation with various concentrations of modified oligonucleotide as specified in the tables below. […] APOE RNA levels were measured using the human primer probe set RTS3073 (described herein above). APOE RNA levels were normalized to human GAPDH. Human GAPDH was amplified using human primer probe set RTS 104 (described herein above). Results are presented as percent APOE RNA, relative to the amount of APOE RNA in untreated control cells (% UTC). The half maximal inhibitory concentration (IC50) of each modified oligonucleotide was calculated in GraphPad Prism 10 (GraphPad Software, San Diego, CA) and is also presented in the tables below.

Substance: 1693060: 5-10-5 MOE gapmer TTGGTGAATCTTTATTAAAC, linkages ssssszzzsssszzsosss (antisense eT*eT*eG*eG*eT*dG[ms]dA[ms]dA[ms]dT*d[5mC]*dT*dT*dT[ms]dA[ms]dT*eTeA*eA*eA*e[5mC]) [compound 1693060]
- APOE RNA (% control) Cortex [1]: 93 % control
- APOE RNA (% control) Spinal Cord [1]: 93 % control

Substance: 1693073: 5-10-5 MOE gapmer ACTTGGTGAATCTTTATTAA, linkages sssossszzzzzsssssss (eA*e[5mC]*eT*eTeG*dG*dT*dG[ms]dA[ms]dA[ms]dT[ms]d[5mC][ms]dT*dT*dT*eA*eT*eT*eA*eA) [compound 1693073]
- APOE RNA (% control) Cortex [1]: 107 % control
- APOE RNA (% control) Spinal Cord [1]: 52 % control

Substance: 1693140: 6-10-4 MOE gapmer ACTTGGTGAATCTTTATTAA, linkages sssssoszzzssssszoss (eA*e[5mC]*eT*eT*eG*eGdT*dG[ms]dA[ms]dA[ms]dT*d[5mC]*dT*dT*dT*dA[ms]eTeT*eA*eA) [compound 1693140]
- APOE RNA (% control) Cortex [1]: 109 % control
- APOE RNA (% control) Spinal Cord [1]: 68 % control

Substance: 1693053: 5-10-5 MOE gapmer TTGGTGAATCTTTATTAAAC, linkages ssssszzzsssssssosss (antisense eT*eT*eG*eG*eT*dG[ms]dA[ms]dA[ms]dT*d[5mC]*dT*dT*dT*dA*dT*eTeA*eA*eA*e[5mC]) [compound 1693053]
- APOE RNA (% control) Cortex [1]: 99 % control
- APOE RNA (% control) Spinal Cord [1]: 99 % control

Substance: 1693068: 5-10-5 MOE gapmer ACTTGGTGAATCTTTATTAA, linkages sssossszzzszsssssss (antisense eA*e[5mC]*eT*eTeG*dG*dT*dG[ms]dA[ms]dA[ms]dT*d[5mC][ms]dT*dT*dT*eA*eT*eT*eA*eA) [compound 1693068]
- APOE RNA (% control) Cortex [1]: 86 % control
- APOE RNA (% control) Spinal Cord [1]: 72 % control

Substance: 1693104: 6-10-4 MOE gapmer CTTGGTGAATCTTTATTAAA, linkages ssossszzzssssszssss (e[5mC]*eT*eTeG*eG*eT*dG[ms]dA[ms]dA[ms]dT*d[5mC]*dT*dT*dT*dA[ms]dT*eT*eA*eA*eA) [compound 1693104]
- APOE RNA (% control) Cortex [1]: 129 % control
- APOE RNA (% control) Spinal Cord [1]: 52 % control

Substance: 1693141: 6-10-4 MOE gapmer ACTTGGTGAATCTTTATTAA, linkages ssssooszzzssssszsss (eA*e[5mC]*eT*eT*eGeGdT*dG[ms]dA[ms]dA[ms]dT*d[5mC]*dT*dT*dT*dA[ms]eT*eT*eA*eA) [compound 1693141]
- APOE RNA (% control) Cortex [1]: 82 % control
- APOE RNA (% control) Spinal Cord [1]: 66 % control

Substance: 1693061: 5-10-5 MOE gapmer TTGGTGAATCTTTATTAAAC, linkages sssoszzzsssszzsssss (antisense eT*eT*eG*eGeT*dG[ms]dA[ms]dA[ms]dT*d[5mC]*dT*dT*dT[ms]dA[ms]dT*eT*eA*eA*eA*e[5mC]) [compound 1693061]
- APOE RNA (% control) Cortex [1]: 91 % control
- APOE RNA (% control) Spinal Cord [1]: 99 % control

Substance: 1693103: 6-10-4 MOE gapmer CTTGGTGAATCTTTATTAAA, linkages sssosszzzssssszssss (e[5mC]*eT*eT*eGeG*eT*dG[ms]dA[ms]dA[ms]dT*d[5mC]*dT*dT*dT*dA[ms]dT*eT*eA*eA*eA) [compound 1693103]
- APOE RNA (% control) Cortex [1]: 84 % control
- APOE RNA (% control) Spinal Cord [1]: 56 % control

Substance: 1693081: 6-10-4 MOE gapmer TTGGTGAATCTTTATTAAAC, linkages sssssozzszssszssoss (eT*eT*eG*eG*eT*eGdA[ms]dA[ms]dT*d[5mC][ms]dT*dT*dT*dA[ms]dT*dT*eAeA*eA*e[5mC]) [compound 1693081]
- APOE RNA (% control) Cortex [1]: 91 % control
- APOE RNA (% control) Spinal Cord [1]: 100 % control

Substance: 1736519: 6-10-4 MOE gapmer CTTGGTGAATCTTTATTAAA, linkages sososszzzssssssssss (e[5mC]*eTeT*eGeG*eT*dG[ms]dA[ms]dA[ms]dT*d[5mC]*dT*dT*dT*dA*dT*eT*eA*eA*eA) [compound 1736519]
- IC50 [2]: 340 nM
- APOE RNA (% UTC) ([2]; 5 nM): 107 % UTC
- APOE RNA (% UTC) ([2]; 13 nM): 104 % UTC
- APOE RNA (% UTC) ([2]; 33 nM): 91 % UTC
- APOE RNA (% UTC) ([2]; 82 nM): 75 % UTC
- APOE RNA (% UTC) ([2]; 205 nM): 53 % UTC
- APOE RNA (% UTC) ([2]; 512 nM): 42 % UTC
- APOE RNA (% UTC) ([2]; 1,280 nM): 25 % UTC
- APOE RNA (% UTC) ([2]; 3,200 nM): 15 % UTC
- APOE RNA (% UTC) ([2]; 8,000 nM): 16 % UTC
- APOE RNA (% UTC) ([2]; 20,000 nM): 5 % UTC

Substance: 1693062: 5-10-5 MOE gapmer TTGGTGAATCTTTATTAAAC, linkages ssssozzzsssszzsssss (antisense eT*eT*eG*eG*eTdG[ms]dA[ms]dA[ms]dT*d[5mC]*dT*dT*dT[ms]dA[ms]dT*eT*eA*eA*eA*e[5mC]) [compound 1693062]
- APOE RNA (% control) Cortex [1]: 98 % control
- APOE RNA (% control) Spinal Cord [1]: 110 % control

Substance: 1693059: 5-10-5 MOE gapmer TTGGTGAATCTTTATTAAAC, linkages ssssszzzssssszsssss (antisense eT*eT*eG*eG*eT*dG[ms]dA[ms]dA[ms]dT*d[5mC]*dT*dT*dT*dA[ms]dT*eT*eA*eA*eA*e[5mC]) [compound 1693059]
- APOE RNA (% control) Cortex [1]: 89 % control
- APOE RNA (% control) Spinal Cord [1]: 98 % control

Substance: 1693106: 6-10-4 MOE gapmer CTTGGTGAATCTTTATTAAA, linkages sssssszzzssssszssss (e[5mC]*eT*eT*eG*eG*eT*dG[ms]dA[ms]dA[ms]dT*d[5mC]*dT*dT*dT*dA[ms]dT*eT*eA*eA*eA) [compound 1693106]
- APOE RNA (% control) Cortex [1]: 78 % control
- APOE RNA (% control) Spinal Cord [1]: 71 % control

Substance: 1693110: 6-10-4 MOE gapmer CTTGGTGAATCTTTATTAAA, linkages sssssszzzsssszzssss (e[5mC]*eT*eT*eG*eG*eT*dG[ms]dA[ms]dA[ms]dT*d[5mC]*dT*dT*dT[ms]dA[ms]dT*eT*eA*eA*eA) [compound 1693110]
- APOE RNA (% control) Cortex [1]: 113 % control
- APOE RNA (% control) Spinal Cord [1]: 92 % control

Substance: 1693056: 5-10-5 MOE gapmer TTGGTGAATCTTTATTAAAC, linkages ssosszzzssssszsosss (antisense eT*eT*eGeG*eT*dG[ms]dA[ms]dA[ms]dT*d[5mC]*dT*dT*dT*dA[ms]dT*eTeA*eA*eA*e[5mC]) [compound 1693056]
- APOE RNA (% control) Cortex [1]: 105 % control
- APOE RNA (% control) Spinal Cord [1]: 118 % control

Substance: 1736518: 6-10-4 MOE gapmer CTTGGTGAATCTTTATTAAA, linkages soossszzzssssssssss (e[5mC]*eTeTeG*eG*eT*dG[ms]dA[ms]dA[ms]dT*d[5mC]*dT*dT*dT*dA*dT*eT*eA*eA*eA) [compound 1736518]
- IC50 [2]: 720 nM
- APOE RNA (% UTC) ([2]; 5 nM): 93 % UTC
- APOE RNA (% UTC) ([2]; 13 nM): 97 % UTC
- APOE RNA (% UTC) ([2]; 33 nM): 99 % UTC
- APOE RNA (% UTC) ([2]; 82 nM): 83 % UTC
- APOE RNA (% UTC) ([2]; 205 nM): 64 % UTC
- APOE RNA (% UTC) ([2]; 512 nM): 44 % UTC
- APOE RNA (% UTC) ([2]; 1,280 nM): 37 % UTC
- APOE RNA (% UTC) ([2]; 3,200 nM): 31 % UTC
- APOE RNA (% UTC) ([2]; 8,000 nM): 30 % UTC
- APOE RNA (% UTC) ([2]; 20,000 nM): 13 % UTC

Substance: 1736517 (e[5mC]*eTeTeG*kG*kT*dG[ms]dA[ms]dA[ms]dT*d[5mC]*dT*dT*dT*dA[ms]dT*eT*eA*eA*eA; antisense) [Compound 1736517]
- IC50 [2]: 470 nM
- APOE RNA (% UTC) ([2]; 5 nM): 106 % UTC
- APOE RNA (% UTC) ([2]; 13 nM): 92 % UTC
- APOE RNA (% UTC) ([2]; 33 nM): 94 % UTC
- APOE RNA (% UTC) ([2]; 82 nM): 84 % UTC
- APOE RNA (% UTC) ([2]; 205 nM): 57 % UTC
- APOE RNA (% UTC) ([2]; 512 nM): 42 % UTC
- APOE RNA (% UTC) ([2]; 1,280 nM): 35 % UTC
- APOE RNA (% UTC) ([2]; 3,200 nM): 22 % UTC
- APOE RNA (% UTC) ([2]; 8,000 nM): 13 % UTC
- APOE RNA (% UTC) ([2]; 20,000 nM): 10 % UTC

Substance: 1736516 (e[5mC]*eTeTeG*eG*kT*dG[ms]dA[ms]dA[ms]dT*d[5mC]*dT*dT*dT*dA[ms]dT*eT*eA*eA*eA; antisense) [Compound 1736516]
- IC50 [2]: 1140 nM
- APOE RNA (% UTC) ([2]; 5 nM): 106 % UTC
- APOE RNA (% UTC) ([2]; 13 nM): 110 % UTC
- APOE RNA (% UTC) ([2]; 33 nM): 121 % UTC
- APOE RNA (% UTC) ([2]; 82 nM): 117 % UTC
- APOE RNA (% UTC) ([2]; 205 nM): 58 % UTC
- APOE RNA (% UTC) ([2]; 512 nM): 59 % UTC
- APOE RNA (% UTC) ([2]; 1,280 nM): 39 % UTC
- APOE RNA (% UTC) ([2]; 3,200 nM): 29 % UTC
- APOE RNA (% UTC) ([2]; 8,000 nM): 32 % UTC
- APOE RNA (% UTC) ([2]; 20,000 nM): 22 % UTC
